Measurements reported in patent US20260207656A1, “COMPOSITION FOR PREVENTING AND/OR TREATING METABOLIC DISORDERS AND METHOD OF ITS PREPARATION” (Pharmako Biotechnologies Pty Ltd, priority 2022, published 2026).

Test: In vivo study in rats fed a high-fat diet for 3 weeks (Example 2): body weight, blood glucose, liver weight, hepatic enzymes
Parameters: species or system Sprague-Dawley rats
Procedure: Sprague-Dawley rats (8-week-old; OzGene, formerly Animal Resources Centre, Perth) were fed a high-fat diet (22% fat/44% energy from fat, sourced from Specialty Feeds, Glen Forrest WA) where animals were provided access to food ad libitum for a period of 3 weeks. The rats were divided into groups and administered treatments as follows: (i) PBS (negative control), (ii) INU-BEN (1 g/kg), (iii) orlistat (tetrahydrolipstatin) (positive control; 75 mg/kg; Dayang Chem (Hangzhou) Co., Ltd) and (iv) a combination group of INU-BEN (1 g/kg) and orlistat (75 mg/kg). The rats were treated daily between […]. The experimental studies involved monitoring body weight daily, prior to dosing. Thereafter, blood samples were collected (by tail vein) prior to the rats being euthanized and were analysed for blood glucose levels and liver enzyme concentrations. The rats were dissected and analysed for fat pad weight and liver weight. The rat microbiomes were also analysed at the completion of the 3-week treatment period via faecal samples.

CCCCCCCCCCC[C@@H](C[C@@H]1OC(=O)[C@H]1CCCCCC)OC(=O)[C@H](CC(C)C)NC=O [orlistat, tetrahydrolipstatin]
plasma hepatic enzyme concentrations (LDH, ALT, AST) (after 3 weeks of treatment, FIGS. 7A-7C): does not exert a positive impact on plasma hepatic enzyme concentrations
body weight gain (change in rodent body weight normalized to original body weight) (daily treatment for 3 weeks, INU-BEN 1 g/kg, orlistat 75 mg/kg, vs PBS negative control, FIG. 3/4): performed about the same
